# Patent publication US20120171123A1, “USES AND COMPOSITIONS FOR TREATMENT OF RHEUMATOID ARTHRITIS” (priority 2006, published 2012)
# Test system: patients with active rheumatoid arthritis
# Assay: Study A: tender and swollen joint count (TJC28/SJC28)
# Assay type: in vivo, human
# Details: for Change in SJC, mean change from baseline / Change in TJC, mean change from baseline / SJC = 0 / TJC = 0: 12 weeks
# Procedure: Swollen and tender joints are the most characteristic features of RA, as disease severity is directly related to the number of swollen and tender joints. Counting swollen and tender joints is a key component of the clinical assessment of RA. Tender joint count (TJC) is an assessment of 28 or more joints where several different aspects of tenderness are assessed by pressure and joint manipulation on physical examination. Swollen joint count (SJC): an assessment of 28 or more joints where joints are classified as either swollen or not swollen. For TJC and SJC scoring see Fuchs and Pincus, Arthritis Rheum 37:470-475, 1994; Arthritis Rheum 37:463-464, 1994).
# The study design included a 12 week open label treatment period followed by a continuation period examining safety and efficacy. […] The main inclusion criteria for the study were the following: males and females ≧18 years; rheumatoid arthritis (RA; defined by ACR criteria) for ≧3 months; unsatisfactory response (or intolerance) to at least one prior DMARD; and patients with active RA (DAS28≧3.2). Baseline demographics and disease severity is shown below in Table 1:
# Efficacy of adalimumab treatment was determined by examining signs and symptoms of the patients. Various assays were used to determine efficacy, including ACR response, EULAR response, TJC and SJC count, and DAS28.
# The objective of this study was to evaluate the impact of prior biologic therapies, in particular TNF-antagonists etanercept (ETA) and infliximab (INF), on key efficacy parameters of adalimumab therapy in patients with long-standing RA in clinical practice. To evaluate the impact of prior biological therapies, patients with moderate to severe RA enrolled at 450 sites in 11 European countries plus Australia (Study A). Patients with moderate to severe RA and an inadequate response to prior DMARD therapies were enrolled in a 12-week open-label study with an optional extension phase. […] Patients with previous biologic treatment must have received the last administration at least 8 weeks before enrollment Routine safety and efficacy data were collected at weeks 2, 6, and 12, and every 8 weeks in the extension phase. Efficacy parameters included ACR20, ACR50, ACR70, EULAR Response, HAQ, tender and swollen joint count (TJC28/SJC28), and DAS28. […] For this interim analysis, efficacy outcomes were evaluated after 12 weeks of therapy per the number and type of prior biologics used: None, any (ETA, INF, anakinra), ETA only, INF only, or ETA and INF but not anakinra.
# Patients with long-standing, moderate to severe RA were enrolled in Study A at 450 sites in 12 different countries. The study design for Study A is outlined in FIG. 21. […] Previous treatment with other biologics was allowed up to 8 weeks before enrollment. Patients met the following inclusion criteria: Age ≧18 years; RA (defined by American College of Rheumatology criteria) for ≧3 months; active, moderate to severe RA (Disease Activity Score (DAS28)≧3.2); unsatisfactory response or intolerance to at least one prior DMARD, including biologics. Efficacy assessments were performed at weeks 0 (baseline), 2, 6, and 12. The key outcomes measured were: change in DAS28; EULAR responses; ACR20, ACR50, ACR70 responses; changes in Tender Joint Count (TJC) and Swollen Joint Count (SJC); and change in Health Assessment Questionnaire (HAQ).
# [1] = prior biologic: ETA + INF (n=78)
# [2] = Week 12, concomitant LEF only (n=557)
# [3] = Week 12, concomitant MTX + LEF (n=123)
# [4] = Week 12, concomitant MTX only (n=1561)
# [5] = Week 12, concomitant QC/HQC (n=85)
# [6] = Week 12, concomitant SSZ only (n=89)
# [7] = Wk 12, concomitant MTX Im 15 mg (N=76), no other DMARD
# [8] = Wk 12, concomitant MTX Iv 15 mg (N=23), no other DMARD
# [9] = Wk 12, concomitant MTX Sc 15 mg (N=37), no other DMARD
# [10] = Wk 12, concomitant MTX oral 15 mg (N=405), no other DMARD
# [11] = Wk 12, concomitant MTX oral ≦7.5 (N=127), no other DMARD
# [12] = Wk 12, concomitant MTX oral ≧20 mg (N=216), no other DMARD
# [13] = week 12, prior biologic: ETA + INF
substance,measurement,setting,value
"adalimumab: human anti-TNF mAb (HUMIRA, Abbott Laboratories), described in U.S. Pat. No. 6,090,382 as D2E7","Change in SJC, mean change from baseline",all pts in Study A (n=4241),−6
same,"Change in TJC, mean change from baseline",all pts in Study A (n=4241),−8
same,SJC = 0,all pts in Study A (n=4241),24%
same,TJC = 0,all pts in Study A (n=4241),21%
same,"Change in SJC, mean change from baseline",prior biologic: Any (n=688),−6
same,"Change in TJC, mean change from baseline",prior biologic: Any (n=688),−8
same,SJC = 0,prior biologic: Any (n=688),18%
same,TJC = 0,prior biologic: Any (n=688),16%
same,"Change in SJC, mean change from baseline",prior biologic: ETA (n=114),−7
same,"Change in TJC, mean change from baseline",prior biologic: ETA (n=114),−8
same,SJC = 0,prior biologic: ETA (n=114),21%
same,TJC = 0,prior biologic: ETA (n=114),16%
same,"Change in SJC, mean change from baseline",[1],−5
same,"Change in TJC, mean change from baseline",[1],−7
same,SJC = 0,[1],7%
same,TJC = 0,[1],10%
same,"Change in SJC, mean change from baseline",prior biologic: INF (n=358),−6
same,"Change in TJC, mean change from baseline",prior biologic: INF (n=358),−8
same,SJC = 0,prior biologic: INF (n=358),22%
same,TJC = 0,prior biologic: INF (n=358),17%
same,"Change in SJC, mean change from baseline",prior biologic: None (n=3553),−7
same,"Change in TJC, mean change from baseline",prior biologic: None (n=3553),−8
same,SJC = 0,prior biologic: None (n=3553),25%
same,TJC = 0,prior biologic: None (n=3553),22%
same,"Change in SJC (0-28), mean change from baseline",[2],−6
same,"Change in TJC (0-28), mean change from baseline",[2],−8
same,"Change in SJC (0-28), mean change from baseline",[3],−8
same,"Change in TJC (0-28), mean change from baseline",[3],−10
same,"Change in SJC (0-28), mean change from baseline","Week 12, concomitant MTX + SSZ",−7
same,"Change in TJC (0-28), mean change from baseline","Week 12, concomitant MTX + SSZ",−8
same,"Change in SJC (0-28), mean change from baseline",[4],−7
same,"Change in TJC (0-28), mean change from baseline",[4],−8
same,"Change in SJC (0-28), mean change from baseline",[5],−7
same,"Change in TJC (0-28), mean change from baseline",[5],−9
same,"Change in SJC (0-28), mean change from baseline",[6],−6
same,"Change in TJC (0-28), mean change from baseline",[6],−7
same,"Change in SJC (0-28), mean change from baseline",[7],−6
same,"Change in TJC (0-28), mean change from baseline",[7],−8
same,"Change in SJC (0-28), mean change from baseline",[8],−7
same,"Change in TJC (0-28), mean change from baseline",[8],−11
same,"Change in SJC (0-28), mean change from baseline",[9],−7
same,"Change in TJC (0-28), mean change from baseline",[9],−10
same,"Change in SJC (0-28), mean change from baseline",[10],−6
same,"Change in TJC (0-28), mean change from baseline",[10],−8
same,"Change in SJC (0-28), mean change from baseline",[11],−7
same,"Change in TJC (0-28), mean change from baseline",[11],−8
same,"Change in SJC (0-28), mean change from baseline",[12],−7
same,"Change in TJC (0-28), mean change from baseline",[12],−9
same,patients achieving SJC=0,week 12,25%
same,patients achieving TJC=0,week 12,23%
same,SJC (0-28) mean change from baseline,"week 12, 1 prior biologic",−6.4
same,TJC (0-28) mean change from baseline,"week 12, 1 prior biologic",−8.0
same,SJC (0-28) mean change from baseline,"week 12, 2 prior biologics",−6.9
same,TJC (0-28) mean change from baseline,"week 12, 2 prior biologics",−8.1
same,SJC (0-28) mean change from baseline,"week 12, 3 prior biologics",−6.6
same,TJC (0-28) mean change from baseline,"week 12, 3 prior biologics",−11.3
same,reduction in SJC28,"week 12, median",~70%
same,reduction in TJC28,"week 12, median",~77%
same,SJC (0-28) mean change from baseline,"week 12, no prior biologic",−6.4
same,TJC (0-28) mean change from baseline,"week 12, no prior biologic",−8.1
same,SJC (0-28) mean change from baseline,"week 12, prior etanercept only",−6.6
same,TJC (0-28) mean change from baseline,"week 12, prior etanercept only",−8.4
same,SJC (0-28) mean change from baseline,"week 12, prior infliximab only",−6.8
same,TJC (0-28) mean change from baseline,"week 12, prior infliximab only",−7.8
same,Median TJC reduction,"week 12, prior biologic: Any",−8
same,Mediant SJC reduction,"week 12, prior biologic: Any",−6
same,Median TJC reduction,"week 12, prior biologic: ETA",−8
same,Mediant SJC reduction,"week 12, prior biologic: ETA",−7
same,Median TJC reduction,[13],−7
same,Mediant SJC reduction,[13],−5
same,Median TJC reduction,"week 12, prior biologic: INF",−8
same,Mediant SJC reduction,"week 12, prior biologic: INF",−6
same,Median TJC reduction,"week 12, prior biologic: None",−8
same,Mediant SJC reduction,"week 12, prior biologic: None",−7
